Converted amounts (≈) assume the structure as drawn. Residues, ends and D or L forms follow the SMILES beside them.
Columns and labels:
S. aureus = experiment: Mouse model of aggressive bacterial infection (intraperitoneal); type: in vivo; conditions: 1.6×10^10 CFU IP; 4 mg/kg peptide IP four hours post infection; total infection time 24 hours; saline controls 100% death
Procedure: FIG. 10. Ability of new antimicrobial peptides HHC-10 and HHC-36 to protect mice against Staph aureus infections. Bacterial loads in the peritoneal lavage from individual mice after 24 hours of infection are shown (solid circles). Dead animals were assigned the highest colony forming unit (CFU) count obtained in the experiment. The solid line represents the arithmetic mean for each group.
(§1) FIG. 18. […] Mice were treated with 1.6×10^10 CFU of S. aureus intraperitoneally. Four hours post infection they received a dose of 8 mg/kg peptide IP. The infection was allowed to progress for 4 or 24 hours after which mice were euthanaised and plate counts of staphylococci surviving in the peritoneum were determined. Bacterial loads in the peritoneal lavage from individual mice after 24 hours of infection are shown (solid circles). The solid line represents the arithmetic mean for each group.
as §1, with “19.” for “18.”
To further confirm this, a mouse model of aggressive bacterial infection, widely used to assess antibiotic efficacy, was utilized. Mice were treated with 1.6×10^10 CFU IP. Four hours post infection they received a dose of 4 mg/kg peptide IP. The infection was allowed to progress for 20 more hours, for a total infection time of 24 hours.
These immunomodulatory activities led to protection against infections by S. aureus. Briefly a mouse model of aggressive bacterial infection, widely used to assess antibiotic efficacy, was utilized. […] The infection was allowed to progress for 4 or 24 hours after which mice were euthanaised and plate counts of staphylococci surviving in the peritoneum were determined.

[1] = tested on: Liverpool Epidemic Strains; type: cell-based, Pseudomonas aeruginosa
Summary of the method: (§2)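 Modified broth microdilution in Mueller Hinton medium, peptides serially diluted in 0.01% acetic acid with 0.2% BSA in polypropylene plates. Inoculum 2-7×10^5 CFU/ml, overnight incubation at 37° C; MIC taken as lowest concentration with no visible growth.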

[2] = tested on: MCP-3 release by human PBMC; experiment: Chemokine induction in PBMC (capture ELISA); type: cell-based; conditions: background (6) subtracted
Summary of the method: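 Human PBMC from healthy donors (Ficoll-isolated), 7.5×10^5 cells at 0.75–1×10^6 cells/ml, treated with peptides at 20 or 100 μg/ml for 24 h at 37° C, 5% CO2. MCP-3 in cell-free supernatants measured by capture ELISA.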

[3] = tested on: CXCL1 (Gro-α) release by human PBMC; experiment: Chemokine induction in PBMC (capture ELISA); type: cell-based; conditions: background (196) subtracted
Summary of the method: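 Human PBMC from healthy donors' heparinised blood (Ficoll), 7.5×10^5 cells treated with 20 or 100 μg/ml peptide for 24 h at 37° C, 5% CO2. Cell-free supernatants assayed for CXCL1 by capture ELISA.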

[4] = tested on: clinical isolates of MRSA; type: cell-based, Staphylococcus aureus
Summary of the method: as §2

[5] = tested on: multidrug resistant Pseudomonas maltophilia ATCC13637; type: cell-based
Summary of the method: (§3)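 Broth microdilution in Mueller Hinton medium, peptides serially diluted in 0.01% acetic acid with 0.2% BSA in polypropylene plates. Inoculum 2-7×10^5 CFU/ml, incubated overnight at 37° C. MIC is the lowest concentration with no visible growth.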

[6] = tested on: ESBL Klebsiella pneumonia clinical strain 63575; type: cell-based
Summary of the method: as §3

[7] = tested on: ESBL E. coli clinical strain 64771; type: cell-based; conditions: ESBL clinical strain 64771
Summary of the method: as §3

ESBL E. cloacae = type: cell-based, Enterobacter cloacae
Summary of the method: as §2

[8] = tested on: Enterococcus faecalis ATCC29212; type: cell-based; conditions: ATCC29212
Summary of the method: (§4)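 Modified microdilution, MH broth, polypropylene wells. Peptide dilutions (10× stocks in 0.01% HOAc/0.2% BSA) mixed 1:10 with medium; cells 2-7×10^5 CFU/ml; 37° C overnight; endpoint no growth.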

[9] = tested on: Staphylococcus aureus ATCC25923; type: cell-based; conditions: ATCC25923
Summary of the method: as §4

[10] = tested on: MCP-1 release by human PBMC; experiment: Chemokine induction in PBMC (capture ELISA); type: cell-based; conditions: background (204) subtracted
Summary of the method: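 Heparinized blood from healthy volunteers; Ficoll-isolated human PBMC (7.5×10^5) treated with peptides at 20 or 100 μg/ml for 24 hours at 37° C, 5% CO2. Cell-free supernatants assayed for MCP-1 by capture ELISA.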

[11] = tested on: IL8 release by human PBMC; experiment: Chemokine induction in PBMC (capture ELISA); type: cell-based; conditions: 20 or 100 μg/ml peptide, 24 hours (FIG. 14)
Procedure: FIG. 14. Induction of IL8 release by 7.5×10^5 human PBMC in response to treatment with 20 or 100 μg/ml of different peptides for 24 hours.
Venous blood (20 ml) from healthy volunteers was collected in Vacutainer® collection tubes containing sodium heparin as an anticoagulant (Becton Dickinson, Mississauga, ON) in accordance with UBC ethical approval and guidelines. Blood was diluted 1:1 with complete RPMI 1640 medium and separated by centrifugation over a Ficoll-Paque® Plus (Amersham Biosciences, Piscataway, N.J., USA) density gradient. White blood cells were isolated from the buffy coat, washed twice in RPMI 1640 complete medium, and the number of peripheral blood mononuclear cells (PBMC) was determined by trypan blue exclusion. PBMC (5×10^5) were seeded into 12-well tissue culture dishes (Falcon; Becton Dickinson) at 0.75 to 1×10^6 cells/ml at 37° C. in 5% CO2. The above conditions were chosen to mimic conditions for circulating blood monocytes entering tissues at the site of infection via extravasation.
Following incubation of the cells under various treatment regimens, the tissue culture supernatants were centrifuged at 1000×g for 5 min, then at 10,000×g for 2 min to obtain cell-free samples. Supernatants were aliquoted and then stored at −20° C. prior to assay for various chemokines by capture ELISA (eBioscience and BioSource International Inc., CA, USA respectively)

[12] = tested on: lab isolate of Candida albicans; type: cell-based; conditions: lab isolate of
Summary of the method: as §4

[13] = tested on: wild-type Salmonella enterica ssp. typhimurium; type: cell-based
Summary of the method: as §4

Escherichia coli UB1005 = type: cell-based; conditions: UB1005
Summary of the method: as §4

[14] = tested on: clinical isolate of Staphylococcus epidermidis; type: cell-based; conditions: clinical isolate of
Summary of the method: as §4

[15] = tested on: Pseudomonas aeruginosa PAO1 strain H103; type: cell-based
Summary of the method: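 Modified broth microdilution MIC in Mueller Hinton medium, peptides diluted in 0.01% acetic acid/0.2% BSA, polypropylene plates. Inoculum 2-7×10^5 CFU/ml, overnight at 37 °C; MIC is the lowest concentration with no visible growth.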

[16] = tested on: multidrug resistant Brazilian clinical isolates of P. aeruginosa; type: cell-based, Pseudomonas aeruginosa
Summary of the method: as §2

[17] = tested on: VRE Vancomycin resistant Enterococcus faecalis clinical isolates; type: cell-based
Summary of the method: as §3

LDH release = type: cell-based; design: dose or concentration left out as unconfirmed
Procedure: In addition the following peptides were tested for LDH release: 1002, 1005, 1012, 1010, 1013, 1018, 1020, 1026, 1028, 1032, 1033, 1035, and 1037.

Row | Structure (SMILES) | mice protected (S. aureus) | MIC [1] | Chemokine induction MCP-3 ([2]; 20 μg/ml peptide) | Chemokine induction MCP-3 ([2]; 100 μg/ml peptide) | Chemokine induction Gro-α ([3]; 20 μg/ml peptide) | Chemokine induction Gro-α ([3]; 100 μg/ml peptide) | MIC [4] | MIC [5] | MIC [6] | MIC [7] | MIC (ESBL E. cloacae) | MIC [8] | MIC [9] | Chemokine induction MCP-1 ([10]; 20 μg/ml peptide) | Chemokine induction MCP-1 ([10]; 100 μg/ml peptide) | other results
1 | CC[C@H](C)[C@H](NC(=O)[C@H](Cc1c[nH]c2ccccc12)NC(=O)[C@H](CCCCN)NC(=O)[C@H](Cc1c[nH]c2ccccc12)NC(=O)[C@H](Cc1c[nH]c2ccccc12)NC(=O)[C@H](CCCNC(=N)N)NC(=O)[C@@H](N)CCCCN)C(=O)N[C@@H](CCCNC(=N)N)C(=O)N[C@@H](Cc1c[nH]c2ccccc12)C(N)=O [HHC10, KRWWKWIRW] (H-KRWWKWIRW-NH2; N-terminus assumed) | 40% | 0.8 µM (≈ 1.16 µg/mL) | -1 pg/mL | 49 pg/mL | -11 pg/mL | 2 pg/mL | 1.5 µM (≈ 2.17 µg/mL) | 0.4 µM (≈ 0.578 µg/mL) | 6 µM (≈ 8.66 µg/mL) | 1.5 µM (≈ 2.17 µg/mL) | 3 µM (≈ 4.33 µg/mL) | 12 µM (≈ 17.3 µg/mL) | 3 µM (≈ 4.33 µg/mL) | 48 pg/mL | 3210 pg/mL | –
2 | CC(C)[C@H](NC(=O)[C@H](CCCNC(=N)N)NC(=O)[C@H](Cc1ccccc1)NC(=O)[C@H](CCCNC(=N)N)NC(=O)[C@H](Cc1ccccc1)NC(=O)[C@H](CCCNC(=N)N)NC(=O)[C@H](Cc1ccccc1)NC(=O)[C@H](CCC(N)=O)NC(=O)[C@@H](N)Cc1c[nH]cn1)C(=O)N[C@@H](CCCNC(=N)N)C(=O)N[C@@H](CCCNC(=N)N)C(=O)N[C@@H](CCCCN)C(N)=O [HH13, HQFRFRFRVRRK] (H-HQFRFRFRVRRK-NH2; N-terminus assumed) | – | – | 40 pg/mL | 54 pg/mL | 15 pg/mL | 42 pg/mL | – | – | – | – | – | – | – | 1 pg/mL | 0 pg/mL | induction of IL8 [11]: strongest abilities to induce this chemokine; MIC E. faecalis [8]: >50 µg/mL; MIC C. albicans [12]: >50 µg/mL; MIC S. typhi [13]: 12 µg/mL (≈ 6.93 µM); MIC E. coli (Escherichia coli UB1005): 25 µg/mL (≈ 14.4 µM); MIC S. epi. [14]: 6 µg/mL (≈ 3.46 µM); MIC S. aureus [9]: 12 µg/mL (≈ 6.93 µM); MIC P. aerug ([15]; PAO1): 50 µg/mL (≈ 28.9 µM)
3 | CC[C@H](C)[C@H](NC(=O)[C@H](CC(N)=O)NC(=O)[C@H](CCCCN)NC(=O)[C@H](Cc1ccccc1)NC(=O)[C@H](CCCNC(=N)N)NC(=O)[C@H](Cc1c[nH]c2ccccc12)NC(=O)[C@H](C)N)C(=O)N[C@@H](CCCNC(=N)N)C(=O)N[C@@H](CCCCN)C(N)=O [HHC126, AWRFKNIRK] (H-AWRFKNIRK-NH2; N-terminus assumed) | – | 111 µM (≈ 135 µg/mL) | 3 pg/mL | 0 pg/mL | 75 pg/mL | -2 pg/mL | >223 µM | >223 µM | >223 µM | 223 µM (≈ 272 µg/mL) | >223 µM | >223 µM | 223 µM (≈ 272 µg/mL) | 314 pg/mL | 104 pg/mL | MIC [16]: >223 µM; MIC [17]: >223 µM; antimicrobial activity against P. aeruginosa PAO1 (in words) ([15]; laboratory strain P. aeruginosa PAO1): did not return any generally active substances
4 | CC[C@H](C)[C@H](NC(=O)[C@H](CCCNC(=N)N)NC(=O)[C@@H](NC(=O)[C@H](C)NC(=O)[C@@H](NC(=O)[C@@H](NC(=O)[C@H](CC(C)C)NC(=O)[C@H](CCCNC(=N)N)NC(=O)[C@@H](N)C(C)C)[C@@H](C)CC)C(C)C)C(C)C)C(=O)N[C@@H](Cc1c[nH]c2ccccc12)C(=O)N[C@@H](CCCNC(=N)N)C(=O)N[C@@H](CCCNC(=N)N)C(N)=O [compound 1018, VRLIVAVRIWRR] (H-VRLIVAVRIWRR-NH2) | – | – | – | – | – | – | – | – | – | – | – | – | – | – | – | LDH release (LDH release): None showed any LDH release
5 | N=C(N)NCCC[C@H](NC(=O)[C@H](CCCNC(=N)N)NC(=O)[C@H](Cc1c[nH]c2ccccc12)NC(=O)[C@H](Cc1c[nH]c2ccccc12)NC(=O)[C@H](CCCCN)NC(=O)[C@H](Cc1c[nH]c2ccccc12)NC(=O)[C@H](Cc1c[nH]c2ccccc12)NC(=O)[C@H](CCCNC(=N)N)NC(=O)[C@@H](N)CCCCN)C(N)=O [HHC36, KRWWKWWRR] (H-KRWWKWWRR-NH2; N-terminus assumed) | 60% | 0.3 µM (≈ 0.446 µg/mL) | 1 pg/mL | 1 pg/mL | 19 pg/mL | -8 pg/mL | 1.4 µM (≈ 2.08 µg/mL) | 1.4 µM (≈ 2.08 µg/mL) | 22 µM (≈ 32.7 µg/mL) | 3 µM (≈ 4.46 µg/mL) | 11 µM (≈ 16.4 µg/mL) | 43 µM (≈ 63.9 µg/mL) | 3 µM (≈ 4.46 µg/mL) | 38 pg/mL | 168 pg/mL | –
